Consider 2 compounds from PMC3342997 (HIV Medicine, 2011).

Values after ≈ are worked out from the molar mass of the structure shown. Values joined by “and” are separate entries in the source; they are usually repeats but may differ in a detail not shown here. Equal entries are not always repeated. Where two headings read alike, the source gives them in different places.

The nature of series [1]: clinical. The note with it: female, human, in vivo, 200 mg.
The conditions of series [2]: for Women with detectable emtricitabine concentrations at pre-dose sampling: limit of detection 0.0118 mg/L.
The conditions of series [3]: female, human, in vivo.
For series [4] the following is noted: cited from earlier work.
The nature of series [5]: clinical. The note with it: female, human, 200 mg; for Vd/F / half-life: in vivo; for AUC: 200 mg once daily, steady state, AUC0-24, noncompartmental.
Series [6] has as its system HIV-1. The note with it: combination antiretroviral regimen.
Series [7] deals with wild-type HIV-1. The note with it: mean in vitro, wild-type HIV-1 viral replication; ref not given; cited from earlier work.
The conditions of series [8]: in vivo; cited from earlier work.
[9] abbreviates: postpartum (n = 22), geometric least-squares mean (90% CI).
Setting [10] is: third trimester (n = 26), geometric least-squares mean (90% CI).

Consider `Nc1nc(=O)n([C@@H]2CS[C@H](CO)O2)cc1F` [emtricitabine], for which the Kp in series [1] was determined as 1.2. Moreover, the “Women with detectable emtricitabine concentrations at pre-dose sampling” value in series [2] (antepartum) was “All 26 women”; in series [2] (postpartum) it was 18 of 22. Further, the “Subjects achieving target AUC ≥7.0 mg h/L” value in series [2] (during pregnancy, 15 of 26 subjects, 80% CI 45–70%) was found to be 58%; in series [2] (postpartum, 21 of 22 subjects, 80% CI 89–100%), 95%. Further, the “C24 (24 hour post dose concentration)” value in [2] (setting [9]) is 0.085 mg/L; in series [2] (postpartum (n = 22), geometric least-squares mean (90% CI), listed as Emtricitabine), 0.085 (0.07–0.1) mg/L; in [2] (setting [10]), 0.058 mg/L. Besides, the Cmax was 1.4 (1.3–1.7) mg/L in series [2] (setting [9]); 1800 ± 700 ng/mL in series [4] (in vivo); 1400 ng/mL in series [5] (plasma, oral). Also, the tmax in series [2] (postpartum (n = 22), median (range)) is 2.0 (min–max: 1–6) hours; in [5] (plasma, oral), 2 h. Also, the “Magnitude of the AUC decrease during pregnancy” value in series [2] (pregnancy compared with postpartum) is “less than 20%”. Moreover, the “Subjects with grade 3 adverse events of elevated bilirubin” value (human, in vivo) is “three subjects”. Where the note is “human, in vivo”, the Tolerability result is given as “well tolerated”. In addition, the “Congenital anomalies in infants” value (lachrymal duct stenosis, grade 3 vesicoureteral reflux, deemed not related to the antiretroviral regimen) was “two infants”. Moreover, in series [3], the “Maternal plasma concentration at delivery” value is reported as 0.15 mg/L. In addition, the AUC in series [4] (in vivo, 200 mg) is 10000 ng·h/mL; in series [5] (plasma, oral, postpartum (n = 22), geometric least-squares mean (90% CI)) it was 9700 ng·h/mL; in [5] (plasma, oral, third trimester (n = 26), geometric least-squares mean (90% CI)) it was 8000 ng·h/mL. Moreover, the Minimum adult concentration in [4] (in vivo) is reported as 0.077 mg/L. Also, the Protein binding result in series [4] (in vivo) is “low protein binding”. Besides, the apparent clearance CL/F in series [4] (nonpregnant adults, 200 mg once daily) was 18.1 L/h. Also, the Vd/F was found to be 301 L in series [5] (setting [9]) and 334 L in series [5] (setting [10]). Moreover, the half-life in series [5] (t1/2, postpartum (n = 22), geometric least-squares mean (90% CI)) was 10.1 h; in [5] (t1/2, third trimester (n = 26), geometric least-squares mean (90% CI)), 9.3 h. Besides, the concentration at 24 h in series [5] (plasma, oral, C24 (24 hour post dose concentration), postpartum (n = 22), geometric least-squares mean (90% CI)) was determined as 85 ng/mL; in [5] (plasma, oral, C24 (24 hour post dose concentration), third trimester (n = 26), geometric least-squares mean (90% CI)), 58 ng/mL; in series [5] (plasma, oral, Lowest C24, postpartum), 70 ng/mL. The “Women with viral load <400 HIV-1 RNA copies/mL” value was 15 of 19 and 15 in [6] (postpartum); 24 of 26 in [6] (third trimester). In addition, the “IC50 (drug concentration that suppresses viral replication by half)” value in series [7] was 0.004 µg/mL (≈ 0.0162 µM). For the same compound, the IC90 in [7] is 0.051 µg/mL (≈ 0.206 µM).
On to `Cc1ccnc2c1NC(=O)c1cccnc1N2C1CC1` [nevirapine], for which, in series [8], the “Reduction of exposure during pregnancy” value is 10–20%.
